According to US20110212100A1, “METHODS FOR MODULATING DEVELOPMENT AND EXPANSION OF IL-17 EXPRESSING CELLS” (priority 2007, published 2011):

Key:
Assay type in all cases: cell-based, mouse
[1] = system: Th17 differentiation of CD4+ CD25− T cells; test: Th17 differentiation (IL-17+ IFNγ− cells) of T cells activated with TGFβ plus IL-6
Protocol: Low doses of halofuginone (HF) were tested to determine the ability of HF to enhance Treg differentiation, while suppressing Th17 differentiation. Nave. CD4+ T cells (CD4+ CD25−) were isolated from the spleen and peripheral lymph nodes of C57B/6 mice. T cells were then activated using anti-CD3 (0.3 μg/ml) and anti-CD28 (0.5 μg/ml) antibodies either in media alone (row 1, 4), TGFβ alone (3 ng/ml—row 2, 5) or TGFβ (3 ng/ml) plus IL-6 (30 ng/ml) (row 3, 6). […] T cells were cultured for 3 days and CD25 and Foxp3 expression (Treg marker genes) was determine by FACS staining and flow cytometric analyses. Simultaneously, T cells were harvested and re-stimulated for 4 hours using phorbol myristic acetate (PMA; 10 nM), Ionomycin (1 μM) and cytokine secretion was prevented using brefeldin A (20 μg/ml). Following stimulation, the production of IL-17 and IFNγ were determined by intracellular staining and analyzed via flow cytometry.
(§1) The dose-response of HF on CD4+ T cell proliferation, activation (i.e. CD25 upregulation) and differentiation to Th1, Th2 and Th17 lineages were evaluated. Purified murine naïve CD4+ CD25− T cells were activated using anti-CD3 (0.3 μg/ml) and anti-CD28 (0.5 μg/ml) antibodies and varying amounts of HF was added to each T cell culture condition (1.25 nM-40 nM). CD4+ T cell proliferation was monitored by CFSE dilution on day 3-post activation and CD25 expression was evaluated by FACS staining 2 days after activation. For T cell differentiation experiments, naïve T cells were activated as above in the presence of Th1 (IL-12 (20 ng/ml) plus anti-IL-4 (10 μg/ml)), Th2 (IL-4 (50 ng/ml) plus anti-IFNγ (0.5 mg/ml)) or Th17 (TGFβ (3 ng/ml) plus IL-6 (30 ng/ml)) polarizing conditions plus titrating amounts of HF (1.25 nM-40 nM) or MAZ1310 (40 nM). The percentage of Th17 cells, (IL-17^+ IFNγ^−) was evaluated on day 3 following activation, whereas the abundance of Th1 cells (IFNγ^+ IL-4) and Th2 cells (IL-4^+ IFNγ^−) was determined 5 days following activation. All cytokine expression was determined by intracellular staining following PMA+Ionomycin+Brefeldin A re-stimulation and all data was normalized to control (MAZ1310)-treated cells. […] Biol., vol. 80:1-8 (2006).
(§2) Cytokines, antibodies and T cell culture: Purified CD4^+ CD25^− T cells were activated in vitro as previously described (I. M. Djuretic et al., Nat Immunol 8, 145 (2007)) using 0.3 μg/ml hamster anti-mouse CD3 (clone 145-2C11) (ATCC—Manassas, Va.) and 0.5 μg/ml hamster anti-mouse CD28 (BD Pharmingen, San Jose, Calif.). Activated cell cultures were differentiated using the following combinations of cytokines and antibodies: iTreg=recombinant human TGFβ1 (3 ng/ml; R&D systems, Minneapolis, Minn.), Th17βTGFβ1 (3 ng/ml) plus recombinant mouse IL-6 (30 ng/ml, R&D systems). Th1 and Th2 differentiation was performed as previously described. (I. M. Djuretic et al., Nat Immunol 8, 145 (2007)). Human IL-2 supernatant (National Cancer Institute) was used in culture at 0.01 U/ml and was added at 48 hours-post activation when T cells were split into tissue culture wells lacking CD3 and CD28 antibodies, with the exception of Th17 cultures that were maintained in the absence of IL-2. All reagents were added at the time of T cell activation and again at 48-hours post activation unless indicated otherwise. For some experiments, purified CD4^+ CD25^− T cells, CD8^+ T cells or B cells were labeled with 1 μM CFSE (Invitrogen) prior to activation in accordance with manufacturers instructions.
Detection of cytokine production: Cytokines secreted into media supernatant were measured using the mouse Th1/Th2 cytometric bead array (CBA, BD Pharmingen) in accordance with manufacturers instructions.

[2] = system: TGFβ-induced Smad phosphorylation; test: TGFβ signaling in T and B cells (Smad phosphorylation, lymphocyte responses to TGFβ); settings: HF 2.5-40 nM or 10 nM; SB-431542 10 μM
Protocol: T cells were then activated in the presence or absence of 3 ng/ml. TGFβ. Whole cell extracts were prepared after 1 hour of stimulation and western blot analyses were performed using the indicated antibodies.
Western blotting: Whole cell lysates were generated from T cells activated for the indicated times. For STAT3 and Smad2/3 western blots cells were harvested, washed in PBS and lysed in 50 mM Tris, pH 7.4, 0.1% SDS, 1% Triton-X100, 140 mM NaCl, 1 mM EDTA, 1 mM EGTA supplemented with protease inhibitors tablets (Roche-Germany), 1 mM NaF and 1 mM Na3VO4. For eIF2α and ATF4 western blots, cells were harvested as above and lysed in 50 mM Tris, pH 7.4, 2% SDS, 20% glycerol and 2 mM EDTA supplemented with protease and phosphatase inhibitors as above. All lysates were cleared via centrifugation and 15-30 μg of protein was resolved by SDS-PAGE. Protein was transferred to nitrocellulose membranes, blocked and blotted using specific antibodies. Antibodies used for western blot analysis were anti-phospho-Smad2, anti-STAT3 (pY705), anti-STAT3, anti-eIF2α^pS51, anti-eIF2α, anti-GCN2^pT898, anti-GCN2 (all from cell signaling technology, Danvers, Mass.). Anti-ATF4/CREB2 and anti-β-actin were purchased from Santa Cruz biotechnology (Santa Cruz, Calif.). […]

CD4+ CD25− T cells = test: CD4+ T cell proliferation, CD25 upregulation, cytokine production and Th1/Th2/iTreg differentiation; settings: titrating concentrations of tunicamycin
Protocol: as §1, §2
Detection of cytokine production: Cytokines secreted into media supernatant were measured using the mouse Th1/Th2 cytometric bead array (CBA, BD Pharmingen) in accordance with manufacturers instructions. […]

Molecule: N[C@H](CO)Cc1c[nH]c2ccccc12 [L-tryptophanol]
- effect of L-tryptophanol on IL-17 production, in words ([1]; 0.2 mM in complete medium, TGFβ plus IL-6): impaired IL-17 production

Molecule: CC(C)(C)OC(=O)N1CCC[C@H](O)[C@H]1CC(=O)Cn1cnc2cc(Br)c(Cl)cc2c1=O [MAZ1310]
- activity of the HF derivative used as negative control, in words ([1]; used at equal concentrations as HF): inactive

Molecule: NC(=O)c1ccc(-c2nc(-c3ccc4c(c3)OCO4)c(-c3ccccn3)[nH]2)cc1 [SB-431542]
- effect on TGFβ-induced Smad phosphorylation and other lymphocyte responses to TGFβ, in words [2]: abrogated all responses to TGFβ

Molecule: tunicamycin
- effect of tunicamycin on IL-17 expression in T cells, in words ([1]; titrating concentrations of tunicamycin): little influence on IL-17 expression
- effect of tunicamycin on Th1 and Th2 differentiation, in words (CD4+ CD25− T cells): preferentially impaired Th1 and Th2 differentiation
